Data taken from US20040063661A1, “Treatment of statin side effects” (priority 2000, published 2004).
Several values for one entry are separate records, joined by “and”; a condition that tells them apart may be missing. Identical values can stand only once.

Assays:
Format in all cases: in vivo, human
muscle pain = assay: Case report: Coenzyme Q10 in a patient with unexplained muscle pain and viral infections (Example 1)
Source text: The patient had suffered for a number of years from unexplained muscle pain which started in the legs and gradually spread to other skeletal muscles. During the worst of the symptoms, the patient was unable to raise their arms above their head and was unable to drive a car. Walking was also difficult. […] The patient was eventually diagnosed as suffering from a number of viral infections: cytomegalovirus (CMV), Epstein-Barr virus (EBV) and hepatitis A. The patient was started on a regimen of 150 mg per day of Coenzyme Q10. […] The improvement was reported as permanent provided that the patient kept taking Q10.

[1] = system: statin induced muscle pain; assay: Pilot clinical study Q10: McGill Pain Questionnaire (PRI, PPI); conditions: for PRI (Pain Rating Index), first score / PRI (Pain Rating Index), second score: patients on statin therapy; for PRI (Pain Rating Index), first score / PRI (Pain Rating Index), second score / PPI (Present Pain Intensity): one line per patient
Source text: (§1) Table 2 outlines data for four patients (numbered #1-#4) undergoing statin therapy for treatment of hypercholesterolemia and who had reported suffering from varying levels of muscular pain and fatigue. This study is ongoing, but the results below follow the study with these four patients from week minus1 (WK(-1)) to week plus 4 (WK(+4)). Patients were either contacted or attended the clinic at weeks -1, 0, +1, +2 and +4. At the clinic on the first week (WK(-1)) details of the patients' statin medication were recorded and daily doses were noted. Patients were also scored for pain using the McGill Pain Questionnaire (Melzack, R., 1975 “The McGill Pain Questionnaire: Major Properties and Scoring Methods”. Pain 1:277-299, the disclosure of which is included herein in its entirety by way of reference) scales for Pain Rating Index (PRI) and Present Pain Intensity (PPI). In the PRI index, which comprises two scores, higher scores indicate increasing levels of pain. In the PPI index present pain is given a score of 0 to 5, where 0 represents no pain and 5 represents excruciating pain. Patients were also scored at WK(-1) for fatigue using the Fatigue Impact Scale (Fisk, J. D. et al, 1994, “Measuring the functional impact of fatigue: Initial Validation of the Fatigue Impact Scale”, Clinical Infectious Disease, 18 (Suppl 1):[…]-83, the disclosure of which is included herein in its entirety by way of reference). Questionnaires to determine PRI, PPI and FIS scores were conducted thereafter at weeks +1, +2 and +4. At weeks +1 and +2 the patients were contacted by telephone and were asked to mail their self assessment questionnaires to the clinic. Commencing at WK(0) and continuing through the study the patients were asked to take a daily dose of 300 mg of Coenzyme Q10 (Q10), which was administered as […] sof gel capsules (commercially available from R. P. Scherer), morning and evening.

statin induced fatigue = assay: Pilot clinical study Q10: Fatigue Impact Scale (FIS); conditions: for FIS (Fatigue Impact Scale): one line per patient
Source text: as §1

creatine kinase = assay: Pilot clinical study Q10: blood creatine kinase concentration (measure of muscle trauma)
Protocol: (§2) Commencing at WK(0) and continuing through the study the patients were asked to take a daily dose of 300 mg of Coenzyme Q10 (Q10), which was administered as […] sof gel capsules (commercially available from R. P. Scherer), morning and evening.

alanine aminotransferase = assay: Pilot clinical study Q10: blood alanine aminotransferase concentration (measure of liver damage)
Protocol: as §2

[2] = system: serum cholesterol, HDL-cholesterol or LDL-cholesterol and triglyceride levels; assay: Pilot clinical study Q10: serum lipids levels under statin therapy; conditions: patients #1-#4; 300 mg Q10 daily; WK(0) vs WK(+4)
Protocol: as §2

[3] = 150 mg per day of Coenzyme Q10, within several days
[4] = 300 mg Q10 daily to WK(+4), a few patients
[5] = WK(+1), 300 mg Q10 daily from WK(0)
[6] = WK(+2), 300 mg Q10 daily from WK(0)
[7] = WK(+4), 300 mg Q10 daily from WK(0)

## COC1=C(OC)C(=O)C(C/C=C(\C)CC/C=C(\C)CC/C=C(\C)CC/C=C(\C)CC/C=C(\C)CC/C=C(\C)CC/C=C(\C)CC/C=C(\C)CC/C=C(\C)CCC=C(C)C)=C(C)C1=O [Q10, Coenzyme Q10]
Muscle pain; [3]
  general sense of well being (patient report): general sense of well being has improved
  muscle pain (patient report): muscle pain had subsided noticeably
Muscle pain; treatment recommenced
  pain after the patient recommenced the Q10 treatment: the pain diminished within a short period
Muscle pain; treatment stopped on one occasion
  muscle pain after the patient stopped taking the Q10: the muscle pain returned
[1]; [4]
  change in PRI scores (overall statement): Marginal decreases
[1]; [5]
  PRI (Pain Rating Index), first score: 22 and 0 and 48 and 19
  PRI (Pain Rating Index), second score: 10 and 0 and 21 and 7
[1]; WK(+1), 300 mg Q10 daily from WK(0), score 0 to 5
  PPI (Present Pain Intensity): 2 and 0 and 3 and 1
[1]; [6]
  PRI (Pain Rating Index), first score: 25 and 9 and 54 and 10
  PRI (Pain Rating Index), second score: 11 and 6 (2×) and 23
[1]; WK(+2), 300 mg Q10 daily from WK(0), score 0 to 5
  PPI (Present Pain Intensity): 2 (3×) and 1
[1]; [7]
  PRI (Pain Rating Index), first score: 8 and 4 and 46 and 9
  PRI (Pain Rating Index), second score: 4 and 1 and 20 and 5
[1]; WK(+4), 300 mg Q10 daily from WK(0), score 0 to 5
  PPI (Present Pain Intensity): 2 (3×) and 1
[1]; WK(−1), baseline before Q10
  PRI (Pain Rating Index), first score: 15 and 10 and 69 and 12
  PRI (Pain Rating Index), second score: 5 (2×) and 3 and 30
[1]; WK(−1), baseline before Q10, score 0 to 5 (5 = excruciating pain)
  PPI (Present Pain Intensity): 2
Statin induced fatigue; [4]
  change in FIS scores (overall statement): Marginal decreases
Statin induced fatigue; [5]
  FIS (Fatigue Impact Scale): 42 and 19 and 91 and 18
Statin induced fatigue; [6]
  FIS (Fatigue Impact Scale): 47 and 44 and 90 and 16
Statin induced fatigue; [7]
  FIS (Fatigue Impact Scale): 43 and 6 and 90 and 16
Statin induced fatigue; WK(−1), baseline before Q10, patients on statin therapy
  FIS (Fatigue Impact Scale): 48 and 39 and 104 and 15
Creatine kinase; WK(0), baseline before Q10, normal range 0-200, one line per patient
  CK (creatine kinase concentration): 175 units/L and 69 units/L and 39 units/L and 160 units/L
Creatine kinase; WK(+4), 300 mg Q10 daily from WK(0), normal range 0-200, one line per patient
  CK (creatine kinase concentration): 127 units/L and 78 units/L and 32 units/L and 148 units/L
Alanine aminotransferase; WK(0), baseline before Q10, normal range 0-40, one line per patient
  ALT (alanine aminotransferase concentration): 31 units/L and 14 units/L and 33 units/L
Alanine aminotransferase; WK(+4), 300 mg Q10 daily from WK(0), normal range 0-40, one line per patient
  ALT (alanine aminotransferase concentration): 25 units/L and 11 units/L and 19 units/L and 35 units/L
[2]
  effect on statin therapy with respect to serum cholesterol, HDL-cholesterol or LDL-cholesterol and triglyceride levels: did not significantly affect statin therapy
